The text below walks through data of paper PMC8559926, “Design, synthesis and biological evaluation of N-oxide derivatives with potent in vivo antileishmanial activity” (PLoS ONE, 2021).

Series [1] addresses T1, recombinant Leishmania cysteine protease LmCPB2.8ΔCTE (CPB) (Leishmania mexicana, UniProt P36400).
T1 construct: The ORF that codes for the Leishmania mexicana CPB, lacking the C terminal extension (CPB2.8ΔCTE); made in house; host or cells: Pichia pastoris X-33
Briefly: Enzymatic inhibition of recombinant CPB (Z-FR-AMC substrate). In kind it is biochemical. As to the method: The concentration of the active recombinant CPB expressed in Pichia pastoris supernatant was determined by active site titration with N-(trans-Epoxysuccinyl)-L-leucine 4-guanidinobutylamide E-64 (CalBiochem) that was found 1 μM. The active enzyme represented about 80% of the total recombinant enzyme.
Compounds were dissolved in DMSO to a final concentration of 20 μM. The assays were performed in dark 96 well-plates, containing 200 μL of 100 mM sodium acetate buffer (pH 5.5), 200 mM NaCl, 0.01% Triton-X100, 2 nM enzyme, various concentrations of inhibitor, and 5 μM of the substrate Z-FR-AMC (Calbiochem). The final concentration of DMSO was 1% (v/v). The enzyme was pre-incubated at 30°C for 2 minutes before the inhibitor was added, waited 2 minutes and after this incubation, the reaction was started by the addition of the substrate, Z-FR-AMC. The fluorescence was monitored at 380 nm excitation and 460 nm emission filters for 2 minutes at 30°C in an Infinite 200 PRO microplate reader (Tecan, Männedorf, Switzerland). The residual activity was measured by the ratio between enzyme + substrate and enzyme + inhibitor + substrate. […] Results were expressed in mean ± standard deviation of two independent replicates using Bioestat Software.

The subject of series [2] is L. infantum intracellular amastigotes. The series is described as follows: Anti-amastigote activity in infected murine peritoneal macrophages. The series is classed as cell-based. To be noted: Leishmania infantum, Peritoneal macrophage, read-out: EC50 - Effective Concentration that kills 50% of L. infantum amastigote forms. As to the method:
(§1) The antileishmanial activity against L. infantum intracellular amastigotes, according to the following methodology. […] Were used infected macrophages as negative control and amphotericin B as the positive control.
(§2) After incubation, cells were fixed with methanol and Giemsa stained. The effective concentration to 50% amastigotes death (EC) was obtained by counting 100 macrophages in duplicate, in two independent experiments. The values were obtained by non-linear regression on Bioestat® software, and results were expressed in mean ± standard deviation.

Test in series [3]: as above
In kind it is cell-based, L. infantum. To be noted: Swiss, mouse; CC50 macrophages / EC50 L. infantum amastigotes; read-out: SI - Selective Index (CC50/EC50). As to the method: as §1, §2

Series [4] is described as follows: Quantification of nitrite by the Griess reaction (NO release). Conditions: compounds at 10^-4 M, 5 mM of L-Cys (1:50), 1 h, 37°C. How it is done:
The levels of nitrite resulting from the oxidation of NO in the aqueous medium were quantified through the Griess reaction after incubation with an excess of L-cysteine (1:50) according to previously published methods. The experiments were performed in triplicate and repeated three times on different days. […] The results were expressed as a percentage of nitrite (% NO2^−; mol/mol). Statistical analysis was carried out using ANOVA followed by Tukey’s Multiple Comparison Test at a significance level of p < 0.05.
The ability of all synthesized compounds (4a-x) and (14a-g) to release NO was evaluated by indirect determination of NO2^− production. The compounds at 10^−4 M were incubated for 1 h at 37°C in the presence of L-cysteine (1:50) and the produced NO2^− was determined through Griess reaction (Table 1).

One may read the IC50 as the midpoint of a concentration-inhibition curve. One may read the melting point as the temperature, or range, at which the solid turns liquid.

Several values for one entry are separate records, joined by “and”; a condition that tells them apart may be missing. Identical values can stand only once. Like-named read-outs stand apart in the source and are kept apart here.

T1 sequence (P36400 126-341, stated change not applied): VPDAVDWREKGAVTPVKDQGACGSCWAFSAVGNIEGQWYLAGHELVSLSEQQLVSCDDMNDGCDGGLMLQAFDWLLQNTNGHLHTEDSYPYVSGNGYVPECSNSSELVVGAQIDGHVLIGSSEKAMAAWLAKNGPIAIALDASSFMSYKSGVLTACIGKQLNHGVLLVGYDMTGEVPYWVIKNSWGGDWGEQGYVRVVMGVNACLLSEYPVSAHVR

For `CC(C)(C)c1ccc(C(=O)N/N=C/c2ccc(O)cc2)cc1` [Compound 14g, (E)-4-(tert-butyl)-N’-(4-hydroxybenzylidene)benzohydrazide], the IC50 in series [1] was found to be 7.6 ± 2.1 µM. In series [2] (24 h), the EC50 is greater than 10 µM.

As for `Nc1cccc(C(=O)N/N=C/c2ccc3no[n+]([O-])c3c2)c1` [Compound 4r], the IC50 in series [1] is 3.4 ± 0.1 µM. The selectivity ratio at 24 h in series [3] stood at 11. The EC50 in series [2] (24 h) came to 9.5 ± 0.6 µM.

As to `O=C(N/N=C/c1ccc(Oc2no[n+]([O-])c2-c2ccccc2)cc1)c1ccc([N+](=O)[O-])cc1` [Compound 4d, (E)-4-(4-((2-(4-nitrobenzoyl)hydrazono)methyl)phenoxy)-3-phenyl-1,2,5-oxadiazole 2-oxide], in series [4], the “% NO2- (mol/mol)” value worked out at 8.6 ± 0.8 %. Moreover, the IC50 in series [1] amounted to 1.8 ± 0.1 µM. Further, the selectivity ratio at 24 h in series [3] was greater than 128. For the same compound, the EC50 in series [2] (24 h) came out at 3.9 ± 0.4 µM.

In the case of `NC(=O)N/N=C/c1ccc(O)cc1` [Compound 14a, (E)-2-(4-hydroxybenzylidene)hydrazine-1-carboxamide], the melting point fell in the range of 224 to 226 °C. In addition, the IC50 in series [1] was 2 ± 0.1 µM. The EC50 in series [2] (24 h) is greater than 10 µM.

`O=C(N/N=C/c1ccc2no[n+]([O-])c2c1)c1cccc(O)c1` [Compound 4u]: the IC50 in series [1] stood at 11.7 ± 0.5 µM. In series [2] (24 h), the EC50 is greater than 10 µM.

In the case of `NC(=O)c1c(COc2ccc(/C=N/NC(=O)c3ccc([N+](=O)[O-])cc3)cc2)no[n+]1[O-]` [Compound 4l, (E)-3-carbamoyl-4-((4-((2-(4-nitrobenzoyl)hydrazono)methyl)phenoxy)methyl)-1,2,5-oxadiazole 2-oxide], the “% NO2- (mol/mol)” value in series [4] was 11.8 ± 1.1 %. Moreover, the IC50 in series [1] was 10.8 ± 2.3 µM. Also, in series [2] (24 h), the EC50 turned out to be 7.7 ± 2.1 µM.

On to `O=C(N/N=C/c1ccc(O)cc1)c1ccc([N+](=O)[O-])cc1` [Compound 14f, (E)-N’-(4-hydroxybenzylidene)-4-nitrobenzohydrazide], for which the melting point lay in the range of 266 to 268 °C. Further, the IC50 in series [1] was determined as 4 ± 0.1 µM. For the same compound, the EC50 in series [2] (24 h) was greater than 10 µM.

Take `CC(C)(C)c1ccc(C(=O)N/N=C/c2ccc(OCc3no[n+]([O-])c3C(N)=O)cc2)cc1` [Compound 4m, (E)-4-((4-((2-(4-(tert-butyl)benzoyl)hydrazono)methyl)phenoxy)methyl)-3-carbamoyl-1,2,5-oxadiazole 2-oxide]: the “% NO2- (mol/mol)” value in series [4] is recorded as 12.5 ± 1.3 %. The IC50 in series [1] is 6 ± 0.7 µM. In addition, the selectivity ratio at 24 h in series [3] was greater than 78. Also, the EC50 in series [2] (24 h) turned out to be 6.4 ± 1.1 µM.

Regarding `Nc1ccc(C(=O)N/N=C/c2ccc3no[n+]([O-])c3c2)cc1` [Compound 4s], the IC50 in series [1] is greater than 20 µM. For the same compound, in series [2] (24 h), the EC50 was greater than 10 µM.

For `CC(C)(C)c1ccc(C(=O)N/N=C/c2ccc3no[n+]([O-])c3c2)cc1` [Compound 4x], the IC50 in series [1] (read-out: IC50 - Inhibition of CPB, 2 nM enzyme, 5 μM Z-FR-AMC, pH 5.5, 30°C) was greater than 20 µM. In series [2] (24 h), the EC50 was greater than 10 µM.

Regarding `O=C(N/N=C/c1ccc(O)cc1)c1ccccc1` [Compound 14c, (E)-N’-(4-hydroxybenzylidene)benzohydrazide], the melting point fell in the range of 244 to 245 °C. Also, the IC50 in series [1] was found to be 2 ± 0.3 µM. Further, the EC50 in series [2] (24 h) was greater than 10 µM.

For the compound `NC(=S)N/N=C/c1ccc(O)cc1` [Compound 14b, (E)-2-(4-hydroxybenzylidene)hydrazine-1-carbothioamide], the IC50 in series [1] came out at 11.7 ± 1 µM.

`O=C(N/N=C/c1ccc(O)cc1)c1ccc(O)cc1` [Compound 14d, (E)-4-hydroxy-N’-(4-hydroxybenzylidene)benzohydrazide]: in series [1], the IC50 turned out to be 2 ± 0.1 µM. In addition, in series [2] (24 h), the EC50 was greater than 10 µM.

For `CC(C)(C)c1ccc(C(=O)N/N=C/c2ccc(Oc3no[n+]([O-])c3-c3ccccc3)cc2)cc1` [Compound 4e, (E)-4-(4-((2-(4-(tert-butyl)benzoyl)hydrazono)methyl)phenoxy)-3-phenyl-1,2,5-oxadiazole 2-oxide], in series [4], the “% NO2- (mol/mol)” value amounted to 8.8 ± 0.7 %. Moreover, in series [1], the IC50 came to 0.8 ± 0.1 µM. In series [3], the selectivity ratio at 24 h was greater than 833. Further, the EC50 in series [2] (24 h) amounted to 0.6 ± 0.1 µM.

Consider `Nc1ccc(C(=O)N/N=C/c2ccc(O)cc2)cc1` [Compound 14e, (E)-4-amino-N’-(4-hydroxybenzylidene)benzohydrazide], for which the melting point was in the range of 275 to 276 °C. The IC50 in series [1] is 1.2 ± 0.1 µM. The EC50 in series [2] (24 h) is greater than 10 µM.

With `O=C(N/N=C/c1ccc2no[n+]([O-])c2c1)c1ccccc1` [Compound 4p], in series [1], the IC50 is greater than 20 µM. Moreover, in series [2] (24 h), the EC50 was greater than 10 µM.

As for `Nc1ccc(C(=O)N/N=C/c2ccc(Oc3no[n+]([O-])c3-c3ccccc3)cc2)cc1` [Compound 4c, (E)-4-(4-((2-(4-aminobenzoyl)hydrazono)methyl)phenoxy)-3-phenyl-1,2,5-oxadiazole 2-oxide], the “% NO2- (mol/mol)” value in series [4] was determined as 9.3 ± 0.8 %. The IC50 in series [1] amounted to 2 ± 0.1 µM. Besides, the selectivity ratio at 24 h in series [3] was 17. Besides, the EC50 in series [2] (24 h) came to 7.2 ± 0.2 µM.

As for `NC(=S)N/N=C/c1ccc(Oc2no[n+]([O-])c2-c2ccccc2)cc1` [Compound 4g, (E)-4-(4-((2-carbamothioylhydrazono)methyl)phenoxy)-3-phenyl-1,2,5-oxadiazole 2-oxide], the “% NO2- (mol/mol)” value in series [4] was determined as 9.0 ± 0.6 %. Moreover, the IC50 in series [1] is 6.5 ± 1 µM. In addition, the selectivity ratio at 24 h in series [3] was greater than 227. Besides, the EC50 in series [2] (24 h) stood at 2.2 ± 0.3 µM.

As to `Nc1ccccc1C(=O)N/N=C/c1ccc2no[n+]([O-])c2c1` [Compound 4q], the IC50 in series [1] turned out to be 14 ± 2 µM. Moreover, the EC50 in series [2] (24 h) is greater than 10 µM.

With `NC(=O)c1c(COc2ccc(/C=N/NC(=O)c3ccccc3)cc2)no[n+]1[O-]` [Compound 4h, (E)-4-((4-((2-benzoylhydrazono)methyl)phenoxy)methyl)-3-carbamoyl-1,2,5-oxadiazole 2-oxide], the “% NO2- (mol/mol)” value in series [4] was determined as 12.1 ± 1.2 %. Further, in series [1], the IC50 worked out at 8.8 ± 0.2 µM. Besides, the selectivity ratio at 24 h in series [3] was greater than 161. Moreover, the EC50 in series [2] (24 h) was found to be 3.1 ± 0.2 µM.

For `O=C(N/N=C/c1ccc2no[n+]([O-])c2c1)c1ccc(O)cc1` [Compound 4v], in series [1], the IC50 was greater than 20 µM. The EC50 in series [2] (24 h) was greater than 10 µM.

With `O=C(N/N=C/c1ccc(Oc2no[n+]([O-])c2-c2ccccc2)cc1)c1ccccc1` [Compound 4a, (E)-4-(4-((2-benzoylhydrazono)methyl)phenoxy)-3-phenyl-1,2,5-oxadiazole 2-oxide], the “% NO2- (mol/mol)” value in series [4] was determined as 9.0 ± 0.7 %. In addition, the IC50 in series [1] amounted to 1.5 ± 0.1 µM. The selectivity ratio at 24 h in series [3] is greater than 357. Also, in series [2] (24 h), the EC50 came out at 1.4 ± 0.1 µM.

For `O=[N+]([O-])O[C@H]1CO[C@H]2[C@@H]1OC[C@H]2O[N+](=O)[O-]` [DNS, isosorbide dinitrate, reference compound], the “% NO2- (mol/mol)” value in series [4] is 10.5% and 10.5 ± 0.9 ^*^a %.

For `O=C(N/N=C/c1ccc(Oc2no[n+]([O-])c2-c2ccccc2)cc1)c1ccc(O)cc1` [Compound 4b, (E)-4-(4-((2-(4-hydroxybenzoyl)hydrazono)methyl)phenoxy)-3-phenyl-1,2,5-oxadiazole 2-oxide], the “% NO2- (mol/mol)” value in series [4] is on record as 8.8 ± 0.6 %. The IC50 in series [1] is 3.2 ± 0.3 µM. The selectivity ratio at 24 h in series [3] was found to be 54. In series [2] (24 h), the EC50 was 3.1 ± 0.2 µM.

As to `O=C(N/N=C/c1ccc2no[n+]([O-])c2c1)c1ccccc1O` [Compound 4t], the IC50 in series [1] was determined as 4.2 ± 0.2 µM. In series [2] (24 h), the EC50 was greater than 10 µM.

In the case of `C[C@@H]1[C@H](O)[C@@H](C)/C=C/C=C/C=C/C=C/C=C/C=C/C=C/[C@H](O[C@@H]2O[C@H](C)[C@@H](O)[C@H](N)[C@@H]2O)C[C@@H]2O[C@](O)(C[C@@H](O)C[C@@H](O)[C@H](O)CC[C@@H](O)C[C@@H](O)CC(=O)O[C@H]1C)C[C@H](O)[C@H]2C(=O)O` [Amphotericin B, amphotericin B, reference compound], in series [4], the “% NO2- (mol/mol)” value turned out to be 0%. For the same compound, in series [3], the selectivity ratio at 24 h stood at 12. Moreover, in series [2] (24 h treatment, intracellular amastigotes), the EC50 came to 1 ± 0.1 µM.
